Structures can show the parent of a compound that is named as a salt.
Assays:
[1] = tested on: bacterial strains that express the class D cephalosporinase OXA-15; assay: Synergy MIC / standard BLI potentiation MIC assay, strains expressing OXA-15; format: cell-based, E. coli; details: in the presence of a β-lactam; comparator Avibactam (comparator compound CCC)
Description: (§1) The experimental protocol was performed according to Clinical and Laboratory Standards Institute (CLSI) guidelines with modifications as described below (CLSI guidelines can be derived from the CLSI document M07-A9 published in January 2012: “Methods for Dilution Antimicrobial Susceptibility Tests for Bacteria That Grow Aerobically; Approved Standard-Ninth Edition”).
(§2) To prepare for MIC testing, frozen glycerol stocks of clinical isolates (Klebsiella pneumoniae, Eschericia coli, Enterobacter spp, Citrobacter spp, or Pseudomonas aeruginosa) were used to streak for isolated colonies on rich, non-selective, tryptic soy agar containing 5% sheep's blood (TSAB). Frozen glycerol stocks of laboratory engineered, isogenic E. coli strains, which contain cloned β-lactamase expressing plasmids were used to streak for isolated colonies on rich, selective LB agar supplemented with 25 μg/mL tetracycline to maintain the plasmid. All strains were incubated at 37° C. for 18-24 hrs.
(§3) On the day of testing, primary cultures were started by scraping off 5-10 colonies from the TSAB plates containing clinical strains or the tetracycline supplemented LB plates containing engineered strains. The clinical strain material was suspended in ˜5 mL of cation adjusted Mueller Hinton Broth (CAMHB) in 14 mL culture tubes. The engineered strain material was suspended in CAMHB (supplemented with 25 μg/mL tetracycline) in 14 mL culture tubes. All strains were incubated at 37° C. with aeration (200 rpm) for ˜2 hrs until the optical density at 600 nm (OD600) was ≧0.1.
(§4) The two compound components of the assay were each diluted in CAMHB and added to the 96-well broth microdilution assay plates. 50 μL of the β-lactam was added to each well of the assay plate in 2-fold dilutions with final concentrations ranging from 128 to 0.13 μg/mL. 25 μL of the BLI compound was added to all wells in the broth microdilution plates at a final concentration of 4 μg/mL. Inoculum cultures were prepared by standardizing the primary cultures to OD600=0.1 and then adding 20 μL of the adjusted primary culture per 1 mL CAMHB for clinical strains or CAMHB (supplemented with tetracycline at 100 μg/mL) for engineered strains, so that the final inoculum density was ˜10^5 colony forming units per milliliter. Diluted inoculum cultures were used to inoculate 25 μL per well in 96-well broth microdilution assay plates. The final volume of each well was 100 μL and contained a β-lactam at different concentrations, a BLI compound at 4 μg/mL concentration, the bacterial culture at an OD600 of approximately 0.001 and when necessary tetracycline at 25 μg/mL.
(§5) Plates were incubated for 18-20 hours at 37° C. with aeration (200 rpm). Following incubation, growth was confirmed visually placing plates over a viewing apparatus (stand with a mirror underneath) and then OD600 was measured using a SpectraMax 340PC384 plate reader (Molecular Devices, Sunnyvale, Calif.). Growth was defined as turbidity that could be detected with the naked eye or achieving minimum OD600 of 0.1. MIC values were defined as the lowest concentration producing no visible turbidity.
(§6) The synergy MIC (sMIC) assay determines the concentration of the BLI required to potentiate the activity of a fixed concentration of a β-lactam antibiotic against β-lactamase producing bacterial strains. The experimental protocol was performed according to Clinical and Laboratory Standards Institute (CLSI) guidelines with modifications as described below (CLSI guidelines can be derived from the CLSI document M07-A9 published in January 2012: “Methods for Dilution Antimicrobial Susceptibility Tests for Bacteria That Grow Aerobically; Approved Standard-Ninth Edition”). […]

[2] = tested on: bacterial strains that express KPC β-lactamases; assay: Synergy MIC / standard BLI potentiation MIC assay, strains expressing KPC β-lactamases; format: cell-based; details: more active for at least one KPC strain and/or better spectrum of activity than Avibactam; in the presence of a β-lactam
Description: as §1, §2, §3, §4, §5, §6

| SMILES | activity against bacterial strains that express the class D cephalosporinase OXA-15, compared with Avibactam [1] | activity and/or spectrum of activity against bacterial strains that express KPC β-lactamases, compared with Avibactam [2] |
| --- | --- | --- |
| O=C1N2C[C@@H](CC[C@H]2c2nnco2)N1OS(=O)(=O)O [Compound 701, (2S,5R)-2-(1,3,4-oxadiazol-2-yl)-7-oxo-1,6-diazabicyclo[3.2.1]octan-6-yl hydrogen sulfate] | more active than Avibactam | more active than Avibactam |
| NCc1nnc([C@@H]2CC[C@@H]3CN2C(=O)N3OS(=O)(=O)O)o1 [Compound 702, (2S,5R)-2-(5-(aminomethyl)-1,3,4-oxadiazol-2-yl)-7-oxo-1,6-diazabicyclo[3.2.1]octan-6-yl hydrogen sulfate] | more active than Avibactam | more active than Avibactam |
| NCCc1nnc([C@@H]2CC[C@@H]3CN2C(=O)N3OS(=O)(=O)O)o1 [Compound 703, (2S,5R)-2-(5-(2-aminoethyl)-1,3,4-oxadiazol-2-yl)-7-oxo-1,6-diazabicyclo[3.2.1]octan-6-yl hydrogen sulfate] | more active than Avibactam | more active than Avibactam |
| N=C(N)NCCc1nnc([C@@H]2CC[C@@H]3CN2C(=O)N3OS(=O)(=O)O)o1 [Compound 705, (2S,5R)-2-(5-(2-guanidinoethyl)-1,3,4-oxadiazol-2-yl)-7-oxo-1,6-diazabicyclo[3.2.1]octan-6-yl hydrogen sulfate] | more active than Avibactam | more active than Avibactam |
| NC(=O)c1nnc([C@@H]2CC[C@@H]3CN2C(=O)N3OS(=O)(=O)O)o1 [Compound 706, (2S,5R)-2-(5-carbamoyl-1,3,4-oxadiazol-2-yl)-7-oxo-1,6-diaza-bicyclo[3.2.1]octan-6-yl hydrogen sulfate] | more active than Avibactam | more active than Avibactam |
| O=C1N2C[C@@H](CC[C@H]2c2nnc(C3CNC3)o2)N1OS(=O)(=O)O [Compound 708, (2S,5R)-2-(5-(azetidin-3-yl)-1,3,4-oxadiazol-2-yl)-7-oxo-1,6-diazabicyclo[3.2.1]octan-6-yl hydrogen sulfate] | more active than Avibactam | more active than Avibactam |
| N=C(N)N1CC(c2nnc([C@@H]3CC[C@@H]4CN3C(=O)N4OS(=O)(=O)O)o2)C1 [Compound 709, (2S,5R)-2-(5-(1-carbamimidoylazetidin-3-yl)-1,3,4-oxadiazol-2-yl)-7-oxo-1,6-diazabicyclo[3.2.1]octan-6-yl hydrogen sulfate] | more active than Avibactam | more active than Avibactam |
| O=C1N2C[C@@H](CC[C@H]2c2nnc(C3CCNC3)o2)N1OS(=O)(=O)O (stereo partly drawn) [Compound 710, (2S,5R)-7-oxo-2-(5-(pyrrolidin-3-yl)-1,3,4-oxadiazol-2-yl)-1,6-diazabicyclo[3.2.1]octan-6-yl hydrogen sulfate] | more active than Avibactam | more active than Avibactam |
| O=C1N2C[C@@H](CC[C@H]2c2nnc(C3CCNCC3)o2)N1OS(=O)(=O)O [Compound 711, (2S,5R)-7-oxo-2-(5-(piperidin-4-yl)-1,3,4-oxadiazol-2-yl)-1,6-diazabicyclo[3.2.1]octan-6-yl hydrogen sulfate] | more active than Avibactam | more active than Avibactam |
| NCCCc1nnc([C@@H]2CC[C@@H]3CN2C(=O)N3OS(=O)(=O)O)o1 [Compound 720, (2S,5R)-2-(5-(3-aminopropyl)-1,3,4-oxadiazol-2-yl)-7-oxo-1,6-diazabicyclo[3.2.1]octan-6-yl hydrogen sulfate] | more active than Avibactam | more active than Avibactam |
| N=C(N)NCc1nnc([C@@H]2CC[C@@H]3CN2C(=O)N3OS(=O)(=O)O)s1 [Compound 721, (2S,5R)-2-(5-(guanidinomethyl)-1,3,4-thiadiazol-2-yl)-7-oxo-1,6-diazabicyclo[3.2.1]octan-6-yl hydrogen sulfate] | more active than Avibactam | more active than Avibactam |
| CNCCc1nnc([C@@H]2CC[C@@H]3CN2C(=O)N3OS(=O)(=O)O)o1 [Compound 722, (2S,5R)-2-(5-(2-(methylamino)ethyl)-1,3,4-oxadiazol-2-yl)-7-oxo-1,6-diazabicyclo[3.2.1]octan-6-yl hydrogen sulfate] | more active than Avibactam | more active than Avibactam |
| N=C(N)NCC1(c2nnc([C@@H]3CC[C@@H]4CN3C(=O)N4OS(=O)(=O)O)o2)CC1 [Compound 723, (2S,5R)-2-(5-(1-(guanidinomethyl)cyclopropyl)-1,3,4-oxadiazol-2-yl)-7-oxo-1,6-diazabicyclo[3.2.1]octan-6-yl hydrogen sulfate] | more active than Avibactam | more active than Avibactam |
| NC1(Cc2nnc([C@@H]3CC[C@@H]4CN3C(=O)N4OS(=O)(=O)O)o2)CC1 [Compound 724, (2S,5R)-2-(5-((1-aminocyclopropyl)methyl)-1,3,4-oxadiazol-2-yl)-7-oxo-1,6-diazabicyclo[3.2.1]octan-6-yl hydrogen sulfate] | more active than Avibactam | more active than Avibactam |
| O=C1N2C[C@@H](CC[C@H]2c2nnc(CNC3CNC3)o2)N1OS(=O)(=O)O [Compound 726, (2S,5R)-2-(5-((azetidin-3-ylamino)methyl)-1,3,4-oxadiazol-2-yl)-7-oxo-1,6-diazabicyclo[3.2.1]octan-6-yl hydrogen sulfate] | more active than Avibactam | more active than Avibactam |
| NC1CCN(CCc2nnc([C@@H]3CC[C@@H]4CN3C(=O)N4OS(=O)(=O)O)o2)CC1 [Compound 775, (2S,5R)-2-(5-(2-(4-aminopiperidin-1-yl)ethyl)-1,3,4-oxadiazol-2-yl)-7-oxo-1,6-diazabicyclo[3.2.1]octan-6-yl hydrogen sulfate] | – | more active than Avibactam |

Source: US20140315876A1, “BETA-LACTAMASE INHIBITORS” (priority 2013, published 2014)
